*1 amine or outer side, *2 acyl side, *3 side chain or, on linkers, in order; H or OH if unused. Where a SMILES comes first, the peptide text is derived from it. Bridges are numbered along the chain shown (N, C = ends). [ ]: non-standard residue; d: D form. Adda = CO[C@@H](Cc1ccccc1)[C@@H](C)/C=C(C)/C=C/[C@H](N[*:1])[C@H](C)C(=O)[*:2]; dAsp(3S-Me) = C[C@H](C(=O)[*:3])[C@@H](N[*:1])C(=O)[*:2]; d(γGlu) = O=C(O)[C@@H](CCC(=O)[*:2])N[*:1]; Abu = CC[C@H](N)C(=O)O; NMeDha = C=C(NC)C(=O)O

The record followed here is publication PMC12490008 (Environmental Science & Technology, 2025).

In data set [1] the test system is River Chriesbach biofilm suspensions.
For data set [2], the system named is River Chriesbach river water.
Data set [3] has as its system River Chriesbach biofilm suspension.
The subject of data set [4] is River Chriesbach biofilm suspension (100%, 10%, 1%).
Data set [5] concerns River Chriesbach biofilm suspension (100%).
Data set [6] concerns River Glatt biofilm suspension.
For data set [7], the system named is River Mönschaltorfer Aa biofilm suspension.
Data set [8] concerns lake Greifensee water and three rivers.

For the molecule `C=C1C(=O)N[C@H](C)C(=O)N[C@@H](CC(C)C)C(=O)N[C@@H](C(=O)O)[C@H](C)C(=O)N[C@@H](CC)C(=O)N[C@@H](/C=C/C(C)=C/[C@H](C)[C@H](Cc2ccccc2)OC)[C@H](C)C(=O)N[C@@H](C(=O)O)CCC(=O)N1C` [MC-LAba] ([Abu][Adda][d(γGlu)][NMeDha][dA]L[dAsp(3S-Me)]-OH; lactam N-7), the “biodegradability in biofilm suspensions (in words)” value in data set [1] is listed as “remained rather stable”. Moreover, in data set [2], the “1d removal, River water” value is -11% and the “Half-lives (h), River water” value was “n.d.(decay)”. The “removal within 3 days” value in data set [3] is listed as < 13%. Further, in data set [4], the “1d removal, 1% biofilm” value is on record as -6%; the “1d removal, 10% biofilm” value was found to be 13%; the “1d removal, 100% biofilm” value is -8%; the “Half-lives (h), 1% biofilm” value was “n.d.(decay)”. Besides, in data set [4], the “Half-lives (h), 10% biofilm” value was “n.d.(decay)” and the “Half-lives (h), 100% biofilm” value was “n.d.(decay)”. Besides, in data set [5], the “1.3d removal, 2% metabolite” value was -7%; the “1.3d removal, 10% metabolite” value is on record as -2%; the “1.3d removal, 100% metabolite” value is reported as 8%; the “Half-lives (h), 100% metabolite” value is “n.d. (decay)”.
`O=C(O)c1ccccc1` [benzoic acid, reference compound]: in data set [6], the “removal of benzoic acid after 8 h” value came out at 3% and the “removal of benzoic acid after 24 h” value came to 75%. Further, in data set [7], the “removal of benzoic acid after 8 h” value came out at 41% and the “removal of benzoic acid after 24 h” value amounted to 84%. Also, in data set [3], the “removal of benzoic acid after 8 h” value is reported as 72% and the “removal of benzoic acid after 24 h” value amounted to 100%. In addition, in data set [4], the “removal of benzoic acid after 1 day, 1% density” value is listed as 62%; the “removal of benzoic acid after 1 day, 10% density” value was 77%; the “removal of benzoic acid after 1 day, 100% density” value worked out at 97%. Also, in data set [8], the “biotransformation during incubation in surface waters” value is reported as “degraded within hours”. In data set [5], the “removal of benzoic acid within 4 h” value was 94-100%.
With [D-Asp3]MC‐(H4)YR [[D-Asp3]MC-(H4)YR], the “biodegradability in biofilm suspensions (in words)” value in data set [1] was “biodegradable”. In addition, in data set [2], the “1d removal, River water” value is recorded as -24%; the “Lag-time (h), River water” value is 168.0 h; the “degradation in ambient river water” value was “detectable degradation”; the “half-life, river water” value is 170 h. Moreover, the “removal within 3 days” value in data set [3] is 86%. Besides, in data set [4], the “1d removal, 1% biofilm” value is recorded as 6%; the “1d removal, 10% biofilm” value is given as 31%; the “1d removal, 100% biofilm” value came to 94%; the “Half-lives (h), 100% biofilm” value was 7.6 h. Further, in data set [4], the “Lag-time (h), 1% biofilm” value is given as 108.8 h; the “Lag-time (h), 10% biofilm” value came out at 56.4 h; the “Lag-time (h), 100% biofilm” value is recorded as 5.8 h; the “half-life, 1% biofilm” value came out at 120 h. In data set [4], the “half-life, 10% biofilm” value was found to be 62.4 h. Besides, in data set [5], the “1.3d removal, 2% metabolite” value came to 100%; the “1.3d removal, 10% metabolite” value is 100%; the “1.3d removal, 100% metabolite” value came to 94%; the “Half-lives (h), 100% metabolite” value amounted to 11.0 h. For the same molecule, the “Lag-time (h), 100% metabolite” value in data set [5] is 1.1 h.
